We go through 17 compounds from patent US9255072B2, “Pyrazole compounds and thiazole compounds as protein kinases inhibitors” (National Health Rsearch Institutes, priority 2011, dated 2016).

What all share (assay type): biochemical
One experiment concerns the target T1, wt-FLT3 (Homo sapiens, UniProt P36888).
T1 construct: FLT3 kinase catalytic domain (residues Y567˜S993); made in house; host or cells: Sf9 insect cells (baculovirus, pBac-PAK8-GST-FLT3-KD plasmid)
T1 sequence (P36888 567-993): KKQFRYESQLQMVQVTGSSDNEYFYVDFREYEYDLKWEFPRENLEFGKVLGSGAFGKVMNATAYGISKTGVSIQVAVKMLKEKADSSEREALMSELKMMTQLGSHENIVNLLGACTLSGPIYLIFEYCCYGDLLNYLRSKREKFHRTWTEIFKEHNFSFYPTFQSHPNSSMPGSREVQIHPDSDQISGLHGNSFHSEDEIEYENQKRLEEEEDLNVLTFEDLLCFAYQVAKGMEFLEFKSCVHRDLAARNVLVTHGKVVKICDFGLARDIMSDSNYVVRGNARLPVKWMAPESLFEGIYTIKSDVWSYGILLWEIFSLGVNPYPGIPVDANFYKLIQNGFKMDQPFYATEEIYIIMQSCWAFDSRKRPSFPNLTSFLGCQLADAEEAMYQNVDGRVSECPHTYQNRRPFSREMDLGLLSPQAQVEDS
Description: FLT3 WT Kinase-Glo assay. Conditions: FLT3 WT Kinase-Glo, 1 μM ATP; read-out: IC50. As for the experimental part:
GST-FLT3-KD^WT containing the FLT3 kinase catalytic domain (residues Y567˜S993) were expressed in Sf9 insect cells transfected the baculovirus containing pBac-PAK8-GST-FLT3-KD plasmid. […] Following incubation, 50 μl Kinase-Glo Plus Reagent (Promega, Madison, Wis., USA) was added to each well and the mixture was incubated at 25° C. for 20 min. A 70-μL aliquot of each reaction mixture was transferred to a black microtiter plate and the luminescence was measured on Wallac Vector 1420 multilabel counter (PerkinElmer, Shelton, Conn., USA).

In another experiment the target is T2, VEGFR1 (Homo sapiens, UniProt P17948).
T2 construct: GST-VEGFR1 (residues R781-I1338); GST (N); made in house; host or cells: Sf9 insect cells
T2 sequence (P17948 781-1338): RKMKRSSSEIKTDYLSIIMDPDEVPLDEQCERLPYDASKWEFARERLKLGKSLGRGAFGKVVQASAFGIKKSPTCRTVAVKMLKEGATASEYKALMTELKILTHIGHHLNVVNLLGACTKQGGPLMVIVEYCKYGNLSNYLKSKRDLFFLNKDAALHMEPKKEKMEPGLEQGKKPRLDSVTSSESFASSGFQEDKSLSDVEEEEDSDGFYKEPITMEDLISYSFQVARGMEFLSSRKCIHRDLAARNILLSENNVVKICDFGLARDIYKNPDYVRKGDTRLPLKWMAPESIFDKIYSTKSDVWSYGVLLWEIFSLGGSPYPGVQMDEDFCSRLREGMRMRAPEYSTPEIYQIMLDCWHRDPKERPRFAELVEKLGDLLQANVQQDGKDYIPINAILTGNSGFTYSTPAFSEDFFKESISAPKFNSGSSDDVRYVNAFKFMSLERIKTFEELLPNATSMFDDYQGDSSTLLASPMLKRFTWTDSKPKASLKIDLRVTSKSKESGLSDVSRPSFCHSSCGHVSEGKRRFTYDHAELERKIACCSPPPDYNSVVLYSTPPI
Nature of the experiment: VEGFR1 Kinase-Glo kinase assay. The note with it: 1 μM ATP. As for the experimental part:
(§1) The recombinant GST-VEGFR1 (residues R781-I1338) or GST-VEGFR2 (residues V789-V1356) containing kinase domain were expressed in Sf9 insect cells. The kinase assay were carried out in 96-well plates with tested compound in a final volume of 50 μl reaction at 30° C. for 120 minutes with following components: 25 mM HEPES pH 7.4, 10 mM MgCl2, 4 mM MnCl2, 0.5 mM Na3VO4, 2 mM DTT, 0.02% Triton X100, 0.01% BSA, 1 μM ATP, 2 μM polyGlu4:Tyr peptide, 50˜100 ng recombinant VEGFR1 or VEGFR2. Following incubation, 50 μl Kinase-Glo Plus Reagent (Promega, Madison, Wis., USA) was added to each well and the mixture was incubated at 25° C. for 20 min. A 70-μL aliquot of each reaction mixture was transferred to a black microtiter plate and the luminescence was measured on Wallac Vector 1420 multilabel counter (PerkinElmer, Shelton, Conn., USA).

In the next experiment the target is T3, VEGFR2 (Homo sapiens, UniProt P35968).
T3 construct: GST-VEGFR2 (residues V789-V1356); GST (N); made in house; host or cells: Sf9 insect cells
Nature of the experiment: VEGFR2 Kinase-Glo kinase assay. The note with it: 1 μM ATP. As for the experimental part: as §1

Setting [1] is: VEGFR1 assay, bound in μM, read-out: IC50.
Where [2] appears, read: VEGFR2 assay, bound in μM, read-out: IC50.
Where [3] appears, read: VEGFR2 assay, ranges in nM, read-out: IC50.
Where [4] appears, read: VEGFR1 assay, bound in nM, read-out: IC50.

The structures appear in SMILES notation. pIC50: −log10 of the molar value. Like-named read-outs stand apart in the source and are kept apart here.

T3 sequence (P35968 789-1356): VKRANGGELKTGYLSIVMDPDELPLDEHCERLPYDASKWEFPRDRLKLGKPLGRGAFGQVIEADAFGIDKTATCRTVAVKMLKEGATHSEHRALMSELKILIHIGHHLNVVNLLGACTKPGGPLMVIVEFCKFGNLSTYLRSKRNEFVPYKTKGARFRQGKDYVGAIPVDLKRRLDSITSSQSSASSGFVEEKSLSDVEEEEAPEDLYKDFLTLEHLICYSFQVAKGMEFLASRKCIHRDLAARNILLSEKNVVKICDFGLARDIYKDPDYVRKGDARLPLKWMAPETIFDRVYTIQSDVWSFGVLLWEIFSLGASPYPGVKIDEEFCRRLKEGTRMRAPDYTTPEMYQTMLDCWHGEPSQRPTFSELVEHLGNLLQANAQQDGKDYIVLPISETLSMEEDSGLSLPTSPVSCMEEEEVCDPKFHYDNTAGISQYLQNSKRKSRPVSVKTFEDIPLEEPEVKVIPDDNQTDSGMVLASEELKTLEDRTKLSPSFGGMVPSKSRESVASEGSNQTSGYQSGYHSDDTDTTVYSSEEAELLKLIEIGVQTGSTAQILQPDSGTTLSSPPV

`O=C(Nc1cc(-c2cccc(NS(=O)(=O)c3ccccc3)c2)n[nH]1)c1ccc(OCCN2CCCC2)cc1` [Compound 24, N1-(3-3-[(phenylsulfonyl)amino]phenyl-1H-5-pyrazolyl)-4-(2-tetrahydro-1H-1-pyrrolylethoxy)benzamide]: the pIC50 on wt-FLT3 was 7.70 to 9.00. The results for the IC50 on VEGFR1 (setting [1]), at VEGFR2 (setting [2]) and on VEGFR2 (setting [3]) were under 1 µM, under 1 µM and 0.055 to 0.4 µM, respectively.

With `Cc1nc(Nc2cc(-c3ccc(CNC(=O)OCc4cccnc4)cc3)n[nH]2)cc(N2CCN(C)CC2)n1` [Compound 101, 3-Pyridylmethyl-N-[4-(5-[2-methyl-6-(4-methylpiperazino)-4-pyrimidinyl]amino-1H-3-pyrazolyl)benzyl]carbamate], the pIC50 at wt-FLT3 is 7.70 to 9.00.

On to `CN1CCN(c2ccc(C(=O)Nc3cc(-c4ccc(NC(=O)Nc5cc(C(C)(C)C)on5)cc4)n[nH]3)cc2)CC1` [Compound 37, N1-(3-4-[([5-(tert-butyl)-3-isoxazolyl]aminocarbonyl)amino]phenyl-1H-5-pyrazolyl)-4-(4-methylpiperazino)benzamide], for which the pIC50 on wt-FLT3 was 7.70 to 9.00. For the same compound, the half-maximal inhibitory concentration (IC50) was under 0.1 µM at VEGFR1 (setting [4]), under 1 µM on VEGFR1 (setting [1]), under 1 µM on VEGFR2 (setting [2]) and 0.001 to 0.055 µM at VEGFR2 (setting [3]).

As to `CN1CCN(c2ccc(C(=O)Nc3cc(-c4ccc(CNC(=O)Nc5ccccc5)cc4)n[nH]3)cc2)CC1` [Compound 51, N1-[3-(4-[(anilinocarbonyl)amino]methylphenyl)-1H-5-pyrazolyl]-4-(4-methylpiperazino)benzamide], on wt-FLT3, the pIC50 is 7.70 to 9.00. Also, the concentration for half-maximal inhibition (IC50) on VEGFR2 (setting [2]) is under 1 µM; at VEGFR2 (setting [3]), 0.001 to 0.055 µM.

Turning to `O=C(NCc1ccc(-c2cc(NC(=O)c3ccc(OCCN4CCCC4)cc3)[nH]n2)cc1)OCc1ccccc1` [Compound 73, Benzyl-N-[4-(5-[4-(2-tetrahydro-1H-1-pyrrolylethoxy)benzoyl]amino-1H-3-pyrazolyl)benzyl]carbamate], the pIC50 at wt-FLT3 was 7.70 to 9.00. The IC50 was under 0.1 µM on VEGFR1 (setting [4]), under 1 µM at VEGFR1 (setting [1]), under 1 µM at VEGFR2 (setting [2]) and 0.055 to 0.4 µM on VEGFR2 (setting [3]).

In the case of `Cc1cc(COC(=O)NCc2ccc(-c3cc(NC(=O)c4ccc(N5CCN(C)CC5)cc4)[nH]n3)cc2)no1` [Compound 75, (5-Methyl-3-isoxazolyl)methyl-N-[4-(5-[4-(4-methylpiperazino)benzoyl]amino-1H-3-pyrazolyl)benzyl]carbamate], the negative-log IC50 (pIC50) on wt-FLT3 was 7.70 to 9.00. Also, the IC50 at VEGFR1 (setting [1]) is under 1 µM; at VEGFR2 (setting [2]), under 1 µM; on VEGFR2 (setting [3]), 0.055 to 0.4 µM.

As for `Cc1nc(Nc2cc(-c3ccc(CNC(=O)OCc4ccccc4)cc3)n[nH]2)cc(N2CCN(C)CC2)n1` [Compound 96, Benzyl-N-[4-(5-[2-methyl-6-(4-methylpiperazino)-4-pyrimidinyl]amino-1H-3-pyrazolyl)benzyl]carbamate], the negative logarithm of the IC50 (pIC50) on wt-FLT3 is 7.70 to 9.00. The half-inhibitory concentration (IC50) is under 1 µM on VEGFR1 (setting [1]), under 1 µM at VEGFR2 (setting [2]) and 0.055 to 0.4 µM at VEGFR2 (setting [3]).

Take `CN1CCN(c2ccc(C(=O)Nc3cc(-c4ccc(CNC(=O)Oc5ccccc5)cc4)n[nH]3)cc2)CC1` [Compound 82, Phenyl-N-[4-(5-[4-(4-methylpiperazino)benzoyl]amino-1H-3-pyrazolyl)benzyl]carbamate]: the negative logarithm of the IC50 (pIC50) at wt-FLT3 was 7.70 to 9.00. Also, the IC50 is under 0.1 µM against VEGFR1 (IC50, VEGFR1 assay, bound in nM); under 1 µM at VEGFR1 (IC50, VEGFR1 assay, bound in μM); under 1 µM against VEGFR2 (IC50, VEGFR2 assay, bound in μM); 0.055 to 0.4 µM at VEGFR2 (IC50, VEGFR2 assay, ranges in nM).

As to `CN1CCN(c2ccc(C(=O)Nc3cc(-c4ccc(CNC(=O)c5ccccc5)cc4)n[nH]3)cc2)CC1` [Compound 11, N1-(3-4-[(benzoylamino)methyl]phenyl-1H-5-pyrazolyl)-4-(4-methylpiperazino)benzamide], the pIC50 at wt-FLT3 was 7.70 to 9.00.

As for `Cc1cc(NC(=O)NCc2ccc(-c3cc(NC(=O)c4ccc(OCCN5CCCC5)cc4)[nH]n3)cc2)no1` [Compound 57, N1-(3-4-[([(5-methyl-3-isoxazolyl)amino]carbonylamino)methyl]phenyl-1H-5-pyrazolyl)-4-(2-tetrahydro-1H-1-pyrrolylethoxy)benzamide], the pIC50 on wt-FLT3 is 7.70 to 9.00. For the same compound, the results for the concentration for half-maximal inhibition (IC50) at VEGFR2 (setting [2]) and at VEGFR2 (setting [3]) were under 1 µM and 0.001 to 0.055 µM, respectively.

For `CN1CCN(Cc2ccc(C(=O)Nc3cc(-c4ccc(CNC(=O)OCc5ccccc5)cc4)n[nH]3)cc2)CC1` [Compound 77, Benzyl-N-4-[5-(4-[(4-methylpiperazino)methyl]benzoylamino)-1H-3-pyrazolyl]benzylcarbamate], at wt-FLT3, the negative logarithm of the IC50 (pIC50) was 7.70 to 9.00.

Turning to `CC(C)(C)c1cc(NC(=O)NCc2ccc(-c3cc(NC(=O)c4ccc(OCCN5CCOCC5)cc4)[nH]n3)cc2)no1` [Compound 60, N1-[3-(4-[([5-(tert-butyl)-3-isoxazolyl]aminocarbonyl)amino]methylphenyl)-1H-5-pyrazolyl]-4-(2-morpholinoethoxy)benzamide], at wt-FLT3, the pIC50 was 7.70 to 9.00. Also, the IC50 at VEGFR2 (setting [2]) was under 1 µM; on VEGFR2 (setting [3]), 0.001 to 0.055 µM.

Consider `CN1CCN(c2ccc(C(=O)Nc3cc(-c4ccc(N)cc4)n[nH]3)cc2)CC1` [Compound 2, N1-[3-(4-aminophenyl)-1H-5-pyrazolyl]-4-(4-methylpiperazino)benzamide], for which the pIC50 on wt-FLT3 was 7.70 to 9.00.

As for `Cc1nc(Nc2cc(-c3ccc(CNC(=O)OCc4ccccc4)cc3)n[nH]2)cc(N2CCN(CCO)CC2)n1` [Compound 97, Benzyl-N-4-[5-(6-[4-(2-hydroxyethyl)piperazino]-2-methyl-4-pyrimidinylamino)-1H-3-pyrazolyl]benzylcarbamate], the negative logarithm of the IC50 (pIC50) on wt-FLT3 is 7.70 to 9.00. In addition, the IC50 at VEGFR2 (setting [2]) is under 1 µM; at VEGFR2 (setting [3]) it was 0.055 to 0.4 µM.

As for `O=C(NCc1ccc(-c2cc(NC(=O)c3ccc(OCCN4CCOCC4)cc3)[nH]n2)cc1)OCc1cccnc1` [Compound 80, 3-Pyridylmethyl-N-[4-(5-[4-(2-morpholinoethoxy)benzoyl]amino-1H-3-pyrazolyl)benzyl]carbamate], the pIC50 on wt-FLT3 is 7.70 to 9.00.

For the compound `Cc1cc(-c2cc(NC(=O)c3ccc(N4CCN(C)CC4)cc3)[nH]n2)ccc1N` [Compound 6, N1-[3-(4-amino-3-methylphenyl)-1H-5-pyrazolyl]-4-(4-methylpiperazino)benzamide], the pIC50 at wt-FLT3 was 7.70 to 9.00. For the same compound, the IC50 was under 1 µM on VEGFR2 (setting [2]) and 0.055 to 0.4 µM on VEGFR2 (setting [3]).

For the compound `Cc1nc(Nc2cc(-c3ccc(CNC(=O)OCc4cc(C)on4)cc3)n[nH]2)cc(N2CCN(C)CC2)n1` [Compound 99, (5-Methyl-3-isoxazolyl)methyl-N-[4-(5-[2-methyl-6-(4-methylpiperazino)-4-pyrimidinyl]amino-1H-3-pyrazolyl)benzyl]carbamate], at wt-FLT3, the pIC50 is 7.70 to 9.00.
